Laboratory results from patent US9062028B2, “Bicyclic nitrogen containing heteroaryl TGR5 receptor modulators” (Bristol-Myers Squibb Company, priority 2011, dated 2015).

The compounds below were run against T1, recombinant human TGR5 (Homo sapiens, UniProt Q8TDU6) (assay: cAMP assay (cAMP accumulation, HTRF) in CHOK1 cells stably expressing TGR5). Conditions: CHOK1 cells stably expressing human TGR5, 30 minutes at RT, 1% DMSO.
T1 construct: expressed in transfected cells
T1 sequence (Q8TDU6 1-330): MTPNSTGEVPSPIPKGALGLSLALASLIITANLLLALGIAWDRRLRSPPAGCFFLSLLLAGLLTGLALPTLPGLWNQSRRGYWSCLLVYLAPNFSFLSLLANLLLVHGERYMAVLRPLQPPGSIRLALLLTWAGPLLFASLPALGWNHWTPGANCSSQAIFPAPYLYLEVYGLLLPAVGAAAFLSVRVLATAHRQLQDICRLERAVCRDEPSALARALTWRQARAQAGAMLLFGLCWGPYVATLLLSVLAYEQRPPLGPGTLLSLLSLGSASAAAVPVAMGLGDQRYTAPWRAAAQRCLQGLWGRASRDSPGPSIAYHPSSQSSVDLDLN
Format: cell-based
Experimental: The in vitro modulation of recombinant human TGR5 was determined as follows.
A human TGR5 expression construct of human TGR5 was integrated into the genome of a CHOK1 cell line (Invitrogen). Once a stable CHOK1 cell line was generated, the cells were incubated for 5-10 minutes in culture medium consisting of F-12 (Invitrogen#11765-047) supplemented with 10% fetal bovine serum.
On the day of the cAMP accumulation assay, cells stably expressing the […] TGR5 construct were centrifuged at 1000 rpm for 5 minutes. The medium was aspirated and the cells were resuspended in 5 mL of assay buffer (phosphate-buffered saline with Ca^2+ and Mg^2+, Invitrogen#14040). The cells were counted using 1:2 dilution and then adjusted to 0.4-0.5×10^6 cells/mL in assay buffer, if necessary. Isobutylmethylxanthine (IBMX, Sigma#I5879) was added via a 1:5000 dilution to make a 0.1 mM final concentration and then 10 μL of the media were transferred to each well of a 384 well poly-D-lysine coated solid white plate (BD #35-6661) pre-dotted with 100 nL of with the desired concentration of compound added from a concentrated stock dissolved in dimethyl sulfoxide (DMSO) to give a final concentration of 1% DMSO in the assay. The plates were covered and incubated for 30 minutes at RT. cAMP accumulation was measured using the CisBio homogeneous time resolved fluorescence (HTRF) assay kit (#62AM2PEC) following the manufacturer's protocol. Briefly, 5 μl each of the cAMP-HTRF fluorescence detection reagents were added to each well, and the samples were incubated for at least one hour at room temperature. Fluorescence was excited at 320 nm and measured at 665 and 620 nm using the Envision instrument (Perkin Elmer), the fluorescence ratio of 665/620 was calculated and converted to nanomolar concentrations of cAMP in each well by interpolation from a cAMP standard curve. The concentration-response curves and EC50 values were calculated with a four parameter logistic curve fit equation utilizing Excel/XLfit software (Microsoft and IDBS). The EC50 value was calculated as the concentration of agonist which increased the cAMP concentration to a value halfway between the baseline and the maximum.

`Cc1cccc(OCCCC(=O)N2C[C@@H]3C[C@@H]3c3c(-c4cnn(Cc5cccc(C(=O)NCS(=O)(=O)O)c5)c4)cccc32)c1C` (single isomer, unassigned) [Example 238] and `Cc1cccc(OCCCC(=O)N2C[C@@H]3C[C@@H]3c3c(-c4cnn(Cc5cccc(C(=O)NCCS(=O)(=O)O)c5)c4)cccc32)c1C` (single isomer, unassigned) [Example 240] are within 1.5-fold of each other in EC50: 59 nM for the first, 49 nM for the second.

`Cc1c(Cl)cccc1OCCCC(=O)N1C[C@@H]2C[C@@H]2c2c(-c3cnn(Cc4cccc(C(=O)NCS(=O)(=O)O)c4)c3)cccc21` (single isomer, unassigned) [Example 242] and `Cc1c(Cl)cccc1OCCCC(=O)N1C[C@@H]2C[C@@H]2c2c(-c3cnn(Cc4cccc(C(=O)NCC(=O)O)c4)c3)cccc21` (single isomer, unassigned) [Example 244] are within 1.5-fold of each other in EC50: 49 nM for the first, 46 nM for the second.

First: Cc1cccc(OCCCC(=O)N2C[C@@H]3C[C@@H]3c3c(-c4cnn(Cc5cccc(NC(=O)NCCC(=O)O)c5)c4)cccc32)c1C (single isomer, unassigned) [Example 248]
Second: Cc1cccc(OCCCC(=O)N2C[C@H]3C[C@H]3c3c(-c4cnn(Cc5cccc(NC(=O)NCCC(=O)O)c5)c4)cccc32)c1C (single isomer, unassigned) [Example 249]
The EC50 of the first is 12-fold lower: 56 nM for the first, 660 nM for the second.

Going from `Cc1cccc(OCCCC(=O)N2C[C@@H]3C[C@@H]3c3c(-c4cnn(Cc5cccc(NC(=O)NCC(=O)O)c5)c4)cccc32)c1C` (single isomer, unassigned) [Example 250] to `Cc1cccc(OCCCC(=O)N2C[C@H]3C[C@H]3c3c(-c4cnn(Cc5cccc(NC(=O)NCC(=O)O)c5)c4)cccc32)c1C` (single isomer, unassigned) [Example 251], the EC50 rises from 29 nM to 644 nM (22-fold).

Going from `Cc1cccc(CCOCC(=O)N2CCCc3c(-c4cnn(Cc5cccc(C(=O)O)c5)c4)cccc32)c1C` [Example 15, 3-((4-(1-(2-(2,3-Dimethylphenethoxy)acetyl)-1,2,3,4-tetrahydroquinolin-5-yl)-1H-pyrazol-1-yl)methyl)benzoic acid] to `Cc1c(OCCCC(=O)N2CCCc3c(-c4cnn(Cc5cccc(C(=O)O)c5)c4)cccc32)cccc1C(F)(F)F` [Example 32, 3-((4-(1-(4-(2-Methyl-3-(trifluoromethyl)phenoxy)butanoyl)-1,2,3,4-tetrahydroquinolin-5-yl)-1H-pyrazol-1-yl)methyl)benzoic acid], the EC50 falls from 5900 nM to 586 nM (10-fold).

Compared with `Cc1cccc(OCCOC(=O)N2CCOc3c(-c4cnn(Cc5ccc(C(=O)O)cc5)c4)cccc32)c1C` [Example 28, 4-((4-(4-((2-(2,3-Dimethylphenoxy)ethoxy)carbonyl)-3,4-dihydro-2H-benzo[b][1,4]oxazin-8-yl)-1H-pyrazol-1-yl)methyl)benzoic acid], `Cc1cccc(OCCOC(=O)N2CCOc3c(-c4cnn(Cc5cccc(C(=O)O)c5)c4)cccc32)c1C` [Example 29, 3-((4-(4-((2-(2,3-Dimethylphenoxy)ethoxy)carbonyl)-3,4-dihydro-2H-benzo[b][1,4]oxazin-8-yl)-1H-pyrazol-1-yl)methyl)benzoic acid] is 4.8-fold lower in EC50: 2860 nM for the first, 596 nM for the second. The second is the more potent here.

First: O=C(O)c1cccc(Cn2cc(-c3cccc4c3C3CC3CN4C(=O)OCCOc3c(F)cccc3F)cn2)c1 (centres unmarked) [Example 32A, 3-((4-(3-((2-(2,6-Difluorophenoxy)ethoxy)carbonyl)-1a,2,3,7b-tetrahydro-1H-cyclopropa[c]quinolin-7-yl)-1H-pyrazol-1-yl)methyl)benzoic acid]
Second: Cc1cccc(OCCCC(=O)N2CC3CC3c3c(-c4cnn(Cc5cccc(N)c5)c4)cccc32)c1C (centres unmarked) [Example 69G, 1-(7-(1-(3-Aminobenzyl)-1H-pyrazol-4-yl)-1a,2-dihydro-1H-cyclopropa[c]quinolin-3(7bH)-yl)-4-(2,3-dimethylphenoxy)butan-1-one]
The EC50 of the first is 67-fold higher: 3400 nM for the first, 51 nM for the second. The second is the more potent here.

`Cc1cccc(OCCCC(=O)N2CCCc3c(-c4cn(Cc5cccc(C(=O)O)c5)nc4C)cccc32)c1C` [Example 32G, 3-((4-(1-(4-(2,3-Dimethylphenoxy)butanoyl)-1,2,3,4-tetrahydroquinolin-5-yl)-3-methyl-1H-pyrazol-1-yl)methyl)benzoic acid] and `Cc1cccc(OCCCC(=O)N2CCCc3c(-c4cccc(COC(=O)NCCC(=O)O)c4)cccc32)c1C` [Example 43, 3-((3-(1-(4-(2,3-Dimethylphenoxy)butanoyl)-1,2,3,4-tetrahydroquinolin-5-yl)benzyloxy)carbonylamino)propanoic acid] are within 1.5-fold of each other in EC50: 636 nM for the first, 611 nM for the second.

Going from `Cc1cccc(OCCCC(=O)N2CCCc3c(-c4cccc(COC(=O)N(CCCS(=O)(=O)O)C5CC5)c4)cccc32)c1C` [Example 36, 3-(Cyclopropyl((3-(1-(4-(2,3-dimethylphenoxy)butanoyl)-1,2,3,4-tetrahydroquinolin-5-yl)benzyloxy)carbonyl)amino)propane-1-sulfonic acid] to `Cc1cccc(OCCCC(=O)N2CCCc3c(-c4csc(COC(=O)NCCC(=O)O)n4)cccc32)c1C` [Example 46, 3-(((4-(1-(4-(2,3-Dimethylphenoxy)butanoyl)-1,2,3,4-tetrahydroquinolin-5-yl)thiazol-2-yl)methoxy)carbonylamino)propanoic acid], the EC50 falls from 2910 nM to 1920 nM (1.5-fold). The second is the more potent here.

`Cc1cccc(OCCCC(=O)N2CC3CC3c3c(-c4cnn(Cc5c(F)cc(C(=O)NCS(=O)(=O)O)cc5Cl)c4)cccc32)c1C` (centres unmarked) [Example 69B, (3-Chloro-4-((4-(3-(4-(2,3-dimethylphenoxy)butanoyl)-1a,2,3,7b-tetrahydro-1H-cyclopropa[c]quinolin-7-yl)-1H-pyrazol-1-yl)methyl)-5-fluorobenzamido)methanesulfonic acid] and `Cc1cccc(OCCCC(=O)N2CC3CC3c3c(-c4cnn(Cc5c(F)cc(C(=O)NCCS(=O)(=O)O)cc5Cl)c4)cccc32)c1C` (centres unmarked) [Example 69C, 2-(3-Chloro-4-((4-(3-(4-(2,3-dimethylphenoxy)butanoyl)-1a,2,3,7b-tetrahydro-1H-cyclopropa[c]quinolin-7-yl)-1H-pyrazol-1-yl)methyl)-5-fluorobenzamido)ethanesulfonic acid] are within 1.5-fold of each other in EC50: 50 nM for the first, 58 nM for the second.

`Cc1cccc(OCCCC(=O)N2CC3CC3c3c(-c4cnn(Cc5c(F)cc(C(=O)NCCC(=O)O)cc5Cl)c4)cccc32)c1C` (centres unmarked) [Example 69E, 3-(3-Chloro-4-((4-(3-(4-(2,3-dimethylphenoxy)butanoyl)-1a,2,3,7b-tetrahydro-1H-cyclopropa[c]quinolin-7-yl)-1H-pyrazol-1-yl)methyl)-5-fluorobenzamido)propanoic acid] and `Cc1cccc(OCCCC(=O)N2CC3CC3c3c(-c4cnn(Cc5c(F)cc(C(=O)NCCC[C@H](NC(=N)N)C(=O)O)cc5Cl)c4)cccc32)c1C` (stereo partly drawn) [Example 69F, (2S)-5-(3-Chloro-4-((4-(3-(4-(2,3-dimethylphenoxy)butanoyl)-1a,2,3,7b-tetrahydro-1H-cyclopropa[c]quinolin-7-yl)-1H-pyrazol-1-yl)methyl)-5-fluorobenzamido)-2-guanidinopentanoic acid] are within 1.5-fold of each other in EC50: 45 nM for the first, 54 nM for the second.

For `Cc1cccc(OCCCC(=O)N2CC3CC3c3c(-c4cnn(Cc5cc(C(=O)O)ccc5Cl)c4)cccc32)c1C` (centres unmarked) [Example 69H, 4-Chloro-3-((4-(3-(4-(2,3-dimethylphenoxy)butanoyl)-1a,2,3,7b-tetrahydro-1H-cyclopropa[c]quinolin-7-yl)-1H-pyrazol-1-yl)methyl)benzoic acid], the EC50 was 52 nM.
